Results reported in patent US20240376100A1 (Redona Therapeutics, Inc., priority 2021, published 2024).

Target: PAPD5 enzyme (Homo sapiens, UniProt Q8NDF8)
Experiment: PAPD5 assay (AMP incorporation onto 3'-terminus of RNA substrate, fluorescence quench)
Format: biochemical
Settings: PAPD5 protein 0.3 nM, ATP 50 μM, 30 minutes preincubation, room temperature; read-out: Potency PAPD5 IC50
Summary of the method: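 Enzyme at 0.3 nM with 50 μM ATP, pH 7.3 HEPES buffer, preincubated with compound 30 minutes at room temperature; 5 nM 5′-fluorescein RNA substrate and 20 nM TAMRA quench probe then added. Initial rates from kinetic fluorescein decrease over ~90 minutes; IC50 by four-parameter fit.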

Chain of PAPD5 enzyme (Q8NDF8 whole entry): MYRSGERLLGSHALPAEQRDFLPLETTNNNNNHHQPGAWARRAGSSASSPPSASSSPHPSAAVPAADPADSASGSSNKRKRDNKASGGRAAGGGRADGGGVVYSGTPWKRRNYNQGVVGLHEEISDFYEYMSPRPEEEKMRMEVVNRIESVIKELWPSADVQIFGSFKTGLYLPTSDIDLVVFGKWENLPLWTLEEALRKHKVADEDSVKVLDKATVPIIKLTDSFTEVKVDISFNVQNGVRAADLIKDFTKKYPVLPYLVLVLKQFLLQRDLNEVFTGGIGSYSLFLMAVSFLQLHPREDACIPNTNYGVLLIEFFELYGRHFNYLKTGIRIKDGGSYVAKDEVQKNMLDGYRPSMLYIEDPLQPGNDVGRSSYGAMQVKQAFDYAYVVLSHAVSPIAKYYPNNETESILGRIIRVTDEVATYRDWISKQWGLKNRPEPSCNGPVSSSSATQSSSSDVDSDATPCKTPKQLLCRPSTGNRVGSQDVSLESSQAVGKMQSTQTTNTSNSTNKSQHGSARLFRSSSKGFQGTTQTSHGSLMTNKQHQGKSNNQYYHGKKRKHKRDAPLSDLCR

IC50, ≤ 1000 nM:
N#Cc1cc2c(=O)c(C(=O)O)cn(-c3ccc(O)c(F)c3)c2cc1N1Cc2cccnc2C1 [Example 37, 6-cyano-7-(5,7-dihydro-6H-pyrrolo[3,4-b]pyridin-6-yl)-1-(3-fluoro-4-hydroxyphenyl)-4-oxo-1,4-dihydroquinoline-3-carboxylic acid]
O=C(O)c1cn(-c2ccc(O)c(F)c2)c2cc(N3Cc4cccnc4C3)c(F)cc2c1=O [Example 28, 7-(5,7-dihydro-6H-pyrrolo[3,4-b]pyridin-6-yl)-6-fluoro-1-(3-fluoro-4-hydroxyphenyl)-4-oxo-1,4-dihydroquinoline-3-carboxylic acid]
N#Cc1cc2c(=O)c(C(=O)O)cn(-c3cccnc3)c2cc1N1Cc2cccc(F)c2C1 [Example 53, 6-cyano-7-(4-fluoroisoindolin-2-yl)-4-oxo-1-(pyridin-3-yl)-1,4-dihydroquinoline-3-carboxylic acid]
